Test results published in US9334267B2, “RAF inhibitor compounds” (Deciphera Pharmaceuticals, LLC, priority 2012, dated 2016).

Assays:
human B-Raf V600E = biological target: T1, human B-Raf V600E (Homo sapiens, UniProt P15056, V600E); test: Enzymatic assay of B-Raf V600E kinase activity (Raf/MEK1 ATPase, coupled PK/LDH, A340); format: biochemical; conditions: read-out: Enzyme IC50, nM B-Raf V600E
T1 construct: B-RafV600E (residues 433-726 containing V600E mutation) containing an N-terminal purification tag is expressed and purified; made in house
Method: Test compounds are evaluated for their inhibitory activities against one or more of human wild type B-Raf, human wild type C-Raf, human B-Raf V600E, human B-Raf V600E+T529I or human B-Raf V600E+G468A. T529I is a threonine to isoleucine B-Raf gatekeeper mutation and G468A is a B-Raf secondary mutation at G1403C in exon 11. The enzymatic assays of B-Raf, C-Raf and B-Raf mutations evaluate a property of Raf and MEK1 complex, which in the presence of ATP, catalyzes an enhanced ATP hydrolysis (Rominger, et al, Arch. Biochem. Biophys. 2007, 464: 130-137; US Patent Publication No. 2006/0211073). The ADP formed is monitored by the well-known coupled PK/LDH (pyruvate kinase/lactate dehydrogenase) system in the form of NADH oxidation, which can be monitored and detected spectrophotometrically by absorbance at 340 nm (A340; for principal of the method see Schindler et al, Science, 2000, 289: 1938-1942). Raf activated MEK1 ATPase activity is a property shared by all forms of Raf proteins.
B-RafV600E (residues 433-726 containing V600E mutation) containing an N-terminal purification tag is expressed and purified essentially as described previously (Wan et al, Cell, 2004, 116, 855-867).
Test compounds are evaluated for their inhibitory activities against one or more of wild type B-Raf, wild type C-Raf, B-Raf V600E, B-Raf V600E+T529I and B-Raf V600E+G468A. T529I is a B-Raf gatekeeper mutation and G468A is a B-Raf secondary mutation. The enzymatic assays of B-Raf, C-Raf and B-Raf mutations evaluate a property of Raf and MEK1 complex, which in the presence of ATP, catalyzes an enhanced ATP hydrolysis (Rominger, et al, Arch. Biochem. Biophys. 2007, 464: 130-137). The ADP formed is monitored by the well-known coupled PK/LDH (pyruvate kinase/lactate dehydrogenase) system in the form of NADH oxidation, which can be monitored and detected by absorbance at 340 nm (A340; for principal of the method see Schindler et al, Science, 2000, 289: 1938-1942). Raf activated MEK1 ATPase activity is a property shared by all forms of Raf proteins. In the B-Raf wild type enzymatic assay, the reaction mixture contains 1.2 nM B-Raf, 30 nM MEK1, 1000 uM ATP, 3.5 units (per 100 ul) of PK, 5 units (per 100 ul) of LDH, 1 mM phosphoenol pyruvate (PEP), and 280 uM of NADH. In the C-Raf assay, the reaction mixture contains 0.6 nM C-Raf, 26 nM MEK1, 2000 uM ATP, and the same amount of PK, LDH, PEP and NADH as above. In the B-Raf V600E assay, the reaction mixture contains […] B-Raf V600E, 26 nM MEK1, 200 uM ATP and the same amount of PK, LDH, PEP and NADH as above. In the B-RafV600E+T529I assay, the reaction mixture contains 6.2 nM B-Raf V600E+T529I, 30 nM MEK1, 200 uM ATP and the same amount of PK, LDH, PEP and NADH as above. In the B-Raf V600E+G468A assay, the reaction mixture contains 3.5 nM B-Raf, 30 nM MEK1, 200 uM ATP and the same amount of PK, LDH, PEP and NADH as above. All assays are started by mixing the above mixture with test compound and monitoring at A340 continuously for approximately 5 hr. […] In the aforementioned assays, the enzyme constructs can be screened prior to or after cleavage of the N-terminal purification tag.

Colo205 cells = test: Colo-205 cell proliferation assay (resazurin); format: cell-based; conditions: Homo sapiens; Colo-205 cells, V600E mutation; read-out: Cell Proliferation Inhibition IC50, nM Colo-205
Method: (§1) Colo205 cells (catalog #HB-8307) are obtained from the American Type Culture Collection (ATCC, Manassas, Va.). Briefly, cells are grown in RPMI 1640 supplemented with 10% characterized fetal bovine serum (Invitrogen, Carlsbad, Calif.), 1 mM sodium pyruvate, and 1% Penicillin/Streptomycin/L-Glutamine at 37 degrees Celsius, 5% CO2, and 95% humidity. Cells are allowed to expand until reaching 30-60% confluency at which point they are subcultured or harvested for assay use. A serial dilution of test compound is dispensed into a 384-well black clear bottom plate in triplicate. One thousand two-hundred fifty cells are added per well in 50 μL complete growth medium in the 384-well plate. Plates are incubated for 67 hours at 37 degrees Celsius, 5% CO2, and 95% humidity. At the end of the incubation period, 10 μL of a 440 μM solution of resazurin (Sigma, St. Louis, Mo.) in PBS is added to each well of the plate and plates are incubated for an additional 5 hours at 37 degrees Celsius, 5% CO2, and 95% humidity. Plates are read on a Synergy2 reader (Biotek, Winooski, Vt.) using an excitation of 540 nm and an emission of 600 nm. Data is analyzed using Prism software (Graphpad, San Diego, Calif.) to calculate IC50 values.
(§2) The A375, HT-29, and Colo-205 cells (ATCC) harbor a V600E mutation.

HT-29 cells = test: HT-29 cell proliferation assay (resazurin); format: cell-based; conditions: Homo sapiens, V600E mutation, read-out: Cell Proliferation Inhibition IC50, nM HT-29
Method: as §1, with “HT-29” for “Colo205”, “#HTB-38)” for “#HB-8307)”, “McCoy's 5A” for “RPMI 1640”, “Calif.),” for “Calif.), 1 mM sodium pyruvate,”, “75-90%” for “30-60%”
as §2

T1 sequence (P15056 433-726 V600E): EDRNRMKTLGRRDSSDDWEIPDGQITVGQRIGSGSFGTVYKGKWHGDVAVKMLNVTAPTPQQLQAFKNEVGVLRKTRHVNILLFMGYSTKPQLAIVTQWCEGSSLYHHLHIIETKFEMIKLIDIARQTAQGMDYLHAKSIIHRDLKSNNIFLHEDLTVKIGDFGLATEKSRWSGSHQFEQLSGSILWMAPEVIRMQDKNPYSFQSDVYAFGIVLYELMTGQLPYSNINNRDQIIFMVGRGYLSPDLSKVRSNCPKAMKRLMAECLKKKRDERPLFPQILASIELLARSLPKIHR

Row | IC50 (human B-Raf V600E) [nM] | IC50 (Colo205 cells) [nM] | IC50 (HT-29 cells) [nM] | Compound
1 | < 150 | 100 to 1000 | < 100 | CNc1ncc2cc(-c3cc(NC(=O)NCCC(C)(C)F)c(F)cc3C)cnc2n1 [Example 34, 1-(3-Fluoro-3-methyl-butyl)-3-[2-fluoro-4-methyl-5-(2-methylaminopyrido[2,3-d]pyrimidin-6-yl)phenyl]urea]
2 | < 150 | < 100 | < 100 | CNc1ncc2cc(-c3cc(NC(=O)NCCC(C)(C)C)c(F)cc3C)cnc2n1 [Example 35, 1-(3,3-Dimethylbutyl)-3-[2-fluoro-4-methyl-5-(2-methylaminopyrido[2,3-d]pyrimidin-6-yl)phenyl]urea]
3 | < 150 | 1000 to 10000 | 100 to 1000 | CNc1ncc2cc(-c3cc(NC(=O)NCCC(C)(C)C)c(F)cc3F)cnc2n1 [Example 36, 1-(2,4-Difluoro-5-(2-(methylamino)pyrido[2,3-d]pyrimidin-6-yl)phenyl)-3-(3,3-dimethylbutyl)urea methanesulfonate]

The remaining lines, values behind:

Row | Compound | IC50 (human B-Raf V600E) [nM] | IC50 (Colo205 cells) [nM] | IC50 (HT-29 cells) [nM]
4 | CNc1ncc2cc(-c3cc(NC(=O)NCCC(C)(C)C)c(F)cc3Br)c(C)nc2n1 [Example 32, 1-(4-Bromo-2-fluoro-5-(7-methyl-2-(methylamino)pyrido[2,3-d]pyrimidin-6-yl)phenyl)-3-(3,3-dimethylbutyl)urea] | < 150 | < 100 | < 100
5 | CC(=O)Nc1ncc2cc(-c3cc(NC(=O)NCCC(C)(C)C)c(F)cc3C)c(C)nc2n1 [Example 33, N-(6-(5-(3-(3,3-Dimethylbutyl)ureido)-4-fluoro-2-methylphenyl)-7-methylpyrido[2,3-d]pyrimidin-2-yl)acetamide] | < 150 | < 100 | < 100
